Measurements: PMC13326014 (Advanced Science, 2026)
Read-outs that look alike come from different tables or passages of the source. Each block holds one compound with its values, some of them ahead of it. Peptide text beside a SMILES is read from it.

Columns and labels:
[1] = tested on: INS‐1E‐hIAPP cells; experiment: ICC of Antp‐QBP1 uptake in INS‐1E‐hIAPP cells; assay type: cell-based, rat; conditions: Antp‐QBP1 10 µM, 48 h
Method: (§1) Rat insulinoma–derived pancreatic β‐cell lines (INS‐1E, INS‐1E‐hIAPP, and INS‐1E‐Ct) were kindly provided by Dr. Anna Novials (IDIBAPS, Barcelona) and characterized as previously described. INS‐1E‐hIAPP cells, which stably express human IAPP, were used as an overexpression model, whereas INS‐1E‐Ct cells transfected with an empty vector served as controls.
(§2) Cells were seeded in 24‐well plates (Corning, cat. #3526) on 12 mm coverslips pre‐treated with 1 mg/mL poly‐D‐lysine (Merck, cat. #P2636) in borate buffer (pH 8.0) at a density of 200,000 cells/mL. […] Primary antibodies against hIAPP (rabbit anti‐hIAPP, 1:400; Sigma‐Aldrich), biotin (goat anti‐biotin, 1:200; Invitrogen, cat. # 31852), oligomers (A11, 1:400, Invitrogen, cat. # AHB0052) and fibrils (OC, 1:200, Millipore, cat. # AB2286) were applied overnight at 4°C. Fluorophore‐conjugated secondary antibodies (Invitrogen) were added for 1 h at RT in darkness, followed by DAPI nuclear staining for 15 min. Coverslips were mounted with ProLong Gold (Life Technologies) and imaged using either a Leica DMI 6000 fluorescence microscope or a Leica Stellaris 8 stimulated emission depletion (STED) super‐resolution microscope, both equipped with a 40× oil‐immersion objective.

[2] = tested on: INS‐1E‐Ct cells; experiment: CellTiter‐Glo ATP viability, empty‐vector control cells; assay type: cell-based, rat; conditions: Antp‐QBP1 5–20 µM, 48 h
Text: as §1
• – hIAPP overexpression conditions .

[3] = tested on: INS‐1E β‐cells; experiment: CellTiter‐Glo ATP viability, exogenous hIAPP oligomers; conditions: 48 h, 16.7 mM glucose
Method: Dried hIAPP or rIAPP peptide (0.5 mg) was reconstituted in 10 mM phosphate‐buffered saline (PBS, pH 7.4) with 2% DMSO and 2 mM sodium azide to a final concentration of 300 µM. rIAPP was included as a non‐amyloidogenic control peptide. After centrifugation at 16 000 x g for 50 min at 4°C to remove preformed aggregates, the supernatant (designated as “time zero”)—primarily populated by monomers—was used to initiate amyloidogenesis. Samples were vortexed and incubated at 25°C for 7 days without agitation to allow gradual formation of oligomers and fibrils. […] Aliquots were collected at different time points for biochemical characterization and β‐cells assays. […]
The fusion peptide was N‐terminally biotinylated and the two peptides were separated by two glycine residues as flexible linkers to minimize steric hindrance: Biotin‐[…]. • – Cell culture . […] Viability was assessed using the CellTiter‐Glo Luminescent Cell Viability Assay (Promega, Madison, WI, USA), which quantifies ATP content as an indicator of metabolically active cells, and AlamarBlue (Invitrogen, Thermo Fisher), based on the reduction of resazurin to the fluorescent product resorufin in metabolically active cells, following the manufacturer's instructions. Luminescence (CellTiter‐Glo) and fluorescence (AlamarBlue; Ex 560 nm / Em 590 nm) were recorded using a FLUOstar Omega microplate reader (BMG LABTECH). […]

[4] = tested on: INS‐1E β‐cells; experiment: ICC of Antp‐QBP1 uptake (anti‐biotin) in INS‐1E β‐cells; assay type: cell-based, rat; conditions: 48 h; for anti‐biotin (Red‐647) fluorescence intensity per cell: uptake by ICC
Method: as §2
ThT‐stained and ICC samples were imaged using a Leica Stellaris 8 STED super‐resolution confocal microscope (Leica Microsystems, Germany). For ThT imaging, samples in Ibidi μ‐Slide 4 Well ibiTreat coverslips were excited at 488 nm and emission was collected between 509–580 nm. For ICC, fluorophores were excited at 405 nm (DAPI; 420–480 nm, HyD S1), 488 nm (Alexa Fluor 488/FITC; 500–550 nm, HyD S2) and 653 nm (Alexa Fluor 647; 665–750 nm, HyD X3), all acquired sequentially in counting mode to prevent spectral overlap. […] Z‐stacks were collected in optimized mode to generate 3D reconstructions of ThT fluorescence and ICC labeling. Image processing and quantitative analysis were conducted using ImageJ/Fiji (NIH, USA). Specifically, a custom Fiji macro based on the “Find Maxima” algorithm was implemented to detect local intensity peaks across the selected fluorescence channels. Fluorescence intensity per cell (a.u.) was calculated as the total signal per field divided by the number of DAPI‐positive nuclei, and the number of fluorescence spots per cell was defined as total local maxima per field normalized to nuclei count. […]

[5] = tested on: INS‐1E β‐cells; experiment: AlamarBlue metabolic activity, exogenous hIAPP oligomers
Method: Dried hIAPP or rIAPP peptide (0.5 mg) was reconstituted in 10 mM phosphate‐buffered saline (PBS, pH 7.4) with 2% DMSO and 2 mM sodium azide to a final concentration of 300 µM. rIAPP was included as a non‐amyloidogenic control peptide. After centrifugation at 16 000 x g for 50 min at 4°C to remove preformed aggregates, the supernatant (designated as “time zero”)—primarily populated by monomers—was used to initiate amyloidogenesis. Samples were vortexed and incubated at 25°C for 7 days without agitation to allow gradual formation of oligomers and fibrils. […] Aliquots were collected at different time points for biochemical characterization and β‐cells assays. For β‐cell assays involving extracellular hIAPP oligomers, samples were sonicated before use to disrupt early fibrils and enrich for oligomeric species.
The fusion peptide was N‐terminally biotinylated and the two peptides were separated by two glycine residues as flexible linkers to minimize steric hindrance: Biotin‐[…]. • – Cell culture . […] Viability was assessed using the CellTiter‐Glo Luminescent Cell Viability Assay (Promega, Madison, WI, USA), which quantifies ATP content as an indicator of metabolically active cells, and AlamarBlue (Invitrogen, Thermo Fisher), based on the reduction of resazurin to the fluorescent product resorufin in metabolically active cells, following the manufacturer's instructions. Luminescence (CellTiter‐Glo) and fluorescence (AlamarBlue; Ex 560 nm / Em 590 nm) were recorded using a FLUOstar Omega microplate reader (BMG LABTECH). Morphological changes were monitored by phase‐contrast microscopy (Leitz DM IRB, Leica, Germany) equipped with a Peltier temperature controller (Linkam, UK) set to 37°C and a Leica K5 camera. Images from at least three fields per condition were acquired at 10× and 20× magnification and analyzed with Leica LAS AF Lite software.

[6] = tested on: Rin1056A β‐cells; conditions: cited from earlier work
[7] = tested on: hIAPP‐induced cytotoxicity; conditions: cited from earlier work
[8] = biological target: T1, hIAPP (Homo sapiens, UniProt P10997); experiment: 1D 1H NMR loss of hIAPP signal (oligomerization kinetics); assay type: biochemical; conditions: 50 µM hIAPP, three‐fold excess (150 µM) inhibitor, PBS, 37°C
T1 construct: hIAPP (1–37; cat. # RP11278); purchased GenScript (Netherlands) RP11278; host or cells: chemical synthesis
T1 sequence (P10997 34-70): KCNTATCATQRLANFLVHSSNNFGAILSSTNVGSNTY
Method: • – hIAPP/QBP1 interaction experiments. 1D ^1H and 2D ^1H‐^1H total correlation spectroscopy (TOCSY) (mixing time = 60 ms) and 2D ^1H‐^1H nuclear Overhauser effect spectroscopy (NOESY) (mixing times = 80 and 250 ms) spectra were recorded at 10°C in 90% H2O/ 10% D2O with 1 mM K2HPO4 and 1 mM sodium acetate buffer (pH 5.5) on 100 µM hIAPP (pre‐monomerized in a small volume of hexadeuterated DMSO) on a Bruker 800 MHz (^1H) spectrometer equipped with a ^1H, ^13C, ^15N cryoprobe, Neo console and z‐gradients. These conditions were chosen because they were previously reported to greatly slow the aggregation of hIAPP, affording time to allow the spectra to be recorded. The solutions also contained 100 µM DSS as the internal chemical shift reference. Spectra were assigned with the aid of the program POKY [62], and the assignments have been deposited in the BMRB database; with access code = 53405. […] The spectra were then analyzed for changes which could reveal atomic‐level details on the interaction between hIAPP and QBP1. • – hIAPP aggregation experiments. A second set of NMR experiments were performed in PBS (90% H2O/ 10% D2O) at 37°C. […] These experiments were performed on a Bruker 600 MHz (^1H) spectrometer equipped with a ^1H, ^13C, ^15N, ^31P cryoprobe, Neo console, and z‐gradients. The final sample pH was verified in situ based on the phosphate ^3 ^1P chemical shift.

[9] = peptide alone, 48 h, Alamar Blue HS

Compound: CC[C@H](C)[C@H](NC(=O)CNC(=O)[C@@H]1CCCN1C(=O)[C@H](Cc1c[nH]c2ccccc12)NC(=O)[C@H](Cc1c[nH]c2ccccc12)NC(=O)[C@H](CCCCN)NC(=O)[C@H](Cc1c[nH]c2ccccc12)NC(=O)CNC(=O)CNC(=O)[C@H](CCCCN)NC(=O)[C@H](CCCCN)NC(=O)[C@H](Cc1c[nH]c2ccccc12)NC(=O)[C@H](CCCCN)NC(=O)[C@H](CCSC)NC(=O)[C@H](CCCNC(=N)N)NC(=O)[C@H](CCCNC(=N)N)NC(=O)[C@H](CC(N)=O)NC(=O)[C@H](CCC(N)=O)NC(=O)[C@H](Cc1ccccc1)NC(=O)[C@H](Cc1c[nH]c2ccccc12)NC(=O)[C@@H](NC(=O)[C@H](CCCCN)NC(=O)[C@@H](NC(=O)[C@H](CCC(N)=O)NC(=O)[C@H](CCCNC(=N)N)NC(=O)CCCC[C@@H]1SC[C@@H]2NC(=O)N[C@@H]21)[C@@H](C)CC)[C@@H](C)CC)C(=O)N[C@@H](Cc1ccccc1)C(=O)O [Antp‐QBP1]
- intracellular delivery by immunostaining [1]: efficient intracellular delivery
- effect on ATP levels in control (Ct) cells [2]: did not alter ATP levels
- effect of peptide alone on ATP levels [3]: did not alter ATP levels
- number of intracellular Red‐647 fluorescent spots per cell vs hIAPP alone ([4]; 10 µM Antp‐QBP1 alone or with 10 µM hIAPP): significantly increased
- anti‐biotin (Red‐647) fluorescence intensity per cell ([4]; 10 µM Antp‐QBP1 alone): 400–600 a.u./cell
- anti‐biotin (Red‐647) fluorescence intensity per cell ([4]; 10 µM Antp‐QBP1 with 10 µM hIAPP oligomers): ~200 a.u./cell
- effect of peptide alone on metabolic activity [5, 9]: no significant effect

Compound: CC[C@H](C)[C@H](NC(=O)CNC(=O)[C@@H]1CCCN1C(=O)[C@H](Cc1c[nH]c2ccccc12)NC(=O)[C@H](Cc1c[nH]c2ccccc12)NC(=O)[C@H](CCCCN)NC(=O)[C@H](Cc1c[nH]c2ccccc12)NC(C)=O)C(=O)N[C@@H](Cc1ccccc1)C(N)=O [QBP1] (Ac-WKWWPGIF-NH2)
- effect of peptide alone on metabolic activity [5, 9]: no significant effect

- effect of peptide alone on metabolic activity [5]: did not affect metabolic activity
Compound: CC(C)C[C@H](NC(=O)[C@H](CC(N)=O)NC(=O)[C@H](CC(N)=O)NC(=O)[C@H](CO)NC(=O)[C@H](CO)NC(=O)[C@H](CCCNC(=N)N)NC(=O)[C@@H](NC(=O)[C@H](CC(C)C)NC(=O)[C@H](Cc1ccccc1)NC(=O)[C@H](CC(N)=O)NC(=O)[C@H](C)NC(=O)[C@H](CC(C)C)NC(=O)[C@H](CCCNC(=N)N)NC(=O)[C@H](CCC(N)=O)NC(=O)[C@@H](NC(=O)[C@H](C)NC(=O)[C@@H]1CSSC[C@H](NC(=O)[C@@H](N)CCCCN)C(=O)N[C@@H](CC(N)=O)C(=O)N[C@@H]([C@@H](C)O)C(=O)N[C@@H](C)C(=O)N[C@@H]([C@@H](C)O)C(=O)N1)[C@@H](C)O)C(C)C)C(=O)NCC(=O)N1CCC[C@H]1C(=O)N[C@H](C(=O)N[C@@H](CC(C)C)C(=O)N1CCC[C@H]1C(=O)N1CCC[C@H]1C(=O)N[C@H](C(=O)N[C@@H](CC(N)=O)C(=O)N[C@H](C(=O)NCC(=O)N[C@@H](CO)C(=O)N[C@@H](CC(N)=O)C(=O)N[C@H](C(=O)N[C@@H](Cc1ccc(O)cc1)C(N)=O)[C@@H](C)O)C(C)C)[C@@H](C)O)C(C)C [rIAPP, reference compound]

Compound: D‐ANFLVH
- molar excess relative to IAPP required to prevent toxicity [6]: ten‐fold molar excess

Compound: FLPNF
- concentration required to reduce hIAPP‐induced cytotoxicity [7]: approximately 200 µM

Compound: epigallocatechin‐3‐gallate [EGCG]
- slowing of the rate of hIAPP oligomerization (NMR signal loss) [8]: ~50%
